# Tests used:
# [1] = system: psoriasis-induced BALB/c mice; experiment: Psoriasis animal model (Aldara cream, Imiquimod); format: in vivo, mouse
# Protocol: To verify the therapeutic effect of the compound according to the present invention on psoriasis, a psoriasis animal model was established as follows, and the compound according to the present invention was administered to evaluate the alleviation of skin lesions and changes in immune cell patterns.
# For the establishment of the psoriasis animal model, BALB/c mice (7 weeks old, female, 20 g) were purchased from HanabioTech Co., Ltd. and acclimatized to the rearing environment for one week.
# Subsequently, the hair on the mouse back was shaved using a hair removal device for the first time, and then completely shaved using a depilatory cream (Nicrin Cream (80% thioglycolic acid, Il Dong Pharmaceutical)) for the second time. The mice were then kept for 24 hours to confirm the absence of skin damage.
# To verify the psoriasis prevention and therapeutic effects of the compounds according to the present invention, the following experimental groups were established:
# [Normal control group (Normal, Not Treatment), psoriasis-induced control group (Psoriasis, Not Treatment), psoriasis-induced vehicle control group (Psoriasis, Vehicle), experimental group (GO85, GO86, GO88, GO89, PBK-2024-010, PBK-2024-026, PBK-2025-002, PBK-2025-004, PBK-2025-016, PBK-2025-017, PBK-2025-023)]. […]
# Body weights of mice in each group were measured on days 1, 4, and 8 after the start of injection and psoriasis induction. […]
# To evaluate the therapeutic effect in a psoriasis-induced mouse model, the PASI (Psoriasis Area and Severity Index) score was measured.
# The PASI score is based on three criteria: erythema, scaling, and skin thickness, each scored from 0 (none) to 4 (severe). […]
# Observations were conducted daily at the same time, and the same observer visually assessed each criterion and recorded the scores, with the results presented in FIG. 13. […]
# All samples were measured in duplicate, and the absorbance was measured at 450 nm using a microplate reader.
# [2] = system: Human Bladder cancer cell, T24; experiment: Relative cell viability, CCK-8, T24; format: cell-based; details: 48 hours
# Protocol: Human-derived breast cancer cell line MCF-7, human-derived lung cancer cell line A549, human-derived colorectal cancer cell line HCT-116, human pancreatic cancer cell line AsPC-1, glioblastoma cell line A172, and melanoma cell line Malme-3M were obtained from the Korean Cell Bank. gastric cancer cell line SNU-719, and bladder cancer cell line T24 were cultured in RPMI-1640 medium containing 10% FBS.
# Following stabilization, the cells were harvested using Trypsin-EDTA treatment, centrifuged at 1,200 rpm for 3 minutes, the supernatant was removed, and the cells were resuspended in the same medium. They were then seeded into a 96-well plate (Costar 96-well cell culture plate, Corning) at 100 μL per well, and the conditions were adjusted as indicated in Table 5.
# The cells were cultured in a 5% CO2 incubator at 37° C. for 24 hours, and after stabilization of the cells, each plate was washed with 200 μL of PBS per well and treated with 50 μL of culture medium per well. […]
# After that, 10 μL of CCK-8 was added to each well, and the plate was incubated again at 37° C. in a 5% CO2 incubator for 2 hours.
# In other words, when the survival rate of untreated cells (DMSO) is set at 100%, the relative cell survival rate in each group treated with the drug at different concentrations is indicated.
# [3] = system: phospho-PDK1 in SU-DHL-8 cells; experiment: PDK1 phosphorylation (pPDK1) by flow cytometry in SU-DHL-8 cells; format: cell-based, human; details: SU-DHL-8, 24 hours, pPDK1-PE flow cytometry, vs control group
# Protocol: SU-DHL-8 cells were cultured in RPMI-1640 medium (containing 10% FBS, 100 U/mL penicillin, and 100 μg/mL streptomycin), and the cell concentration was adjusted to 1×10^6 cells/mL and seeded into a 12-well plate. After stabilizing the cells, the compound of the present invention was added, and the cells were cultured for 24 hours.
# After drug treatment, the cells were harvested, and the Fc receptor blocking process was performed. The cells were then fixed and permeabilized using the Intracellular Staining Kit (Cat. No. BD554715) from BD Biosciences. Subsequently, the intracellular pPDK1 was stained using the pPDK1-PE fluorescently labeled antibody (BD Biosciences).
# Referring to the figure, the vertical axis represents the phosphorylation level of PDK1 (phospho-PDK1 expression level), and the horizontal axis denotes the concentration-dependent treatment conditions of each compound.
SMILES,efficacy in improving dermatological symptoms [1],"Relative cell viability (%) ([2]; T24, 1 μM)","Relative cell viability (%) ([2]; T24, 10 μM)","Relative cell viability (%) ([2]; T24, 30 μM)","Relative cell viability (%) ([2]; T24, 50 μM)",PDK1 phosphorylation (phospho-PDK1 expression level) [3]
"CC1(C)CN(CCCCCCCCCCCCC(=O)Nc2nc(N)c3[nH]cnc3n2)CCO1 [Compound 11, 12-[4-(2,2-dimethylmorpholin-4-yl)]dodecyl-N-(6-aminopurine-2-yl)carboxamide]",excellent efficacy in improving dermatological symptoms,28.15,31.17,30.42,29.34,stronger PDK1 inhibition
"Nc1ncccc1C(=O)NCCCCCCCCCCCCN1CCNCC1 [Compound 14, 2-Amino-N-(12-(piperazin-1-yl)dodecyl)nicotinamide]",excellent efficacy in improving dermatological symptoms,,,,,stronger PDK1 inhibition

# Reference: US20260184700A1, “PDK1 REGULATORY COMPOUND AND COMPOSITION CONTAINING THE SAME” (PROVIBIO CO., LTD., priority 2024, published 2026)
